From PMC8151276, “An Integrated Approach toward NanoBRET Tracers for Analysis of GPCR Ligand Engagement” (Molecules, 2021)

Biological target: T1, GRM1 (Homo sapiens, UniProt Q13255)
T1 construct: purchased Promega (in-house HiBiT-GPCR construct library, NanoBRET)
Assay: NanoBRET screen HiBiT-GRM1 in HEK293
Format: binding
Method: Each tracer candidate was screened across the entire library of HiBiT-GPCR constructs using NanoBRET as the detection modality. As depicted in Figure 4A, the specificity of interactions was evaluated through decrease in BRET due to competitive displacement of a bound tracer by excess parental compound. Each tracer was analyzed for binding to each HiBiT-GPCR fusion in the absence and in the presence of competing parental compound. Briefly, HEK293 cells were transfected with HiBiT-GPCR constructs diluted into promoterless DNA to reduce expression and maximize translocation to the cell surface. Each tracer candidate was then screened at concentrations of 1 μM and 0.1 μM across cells expressing these fusions. Cells were treated for 1.5 h with tracer either alone or in the presence of 20 μM competing parental compound (i.e., control). BRET was measured upon addition of purified LgBiT and subsequent complementation with HiBiT genetically fused to a GPCR. The specificity of interactions was assessed through a decrease in BRET signal due to competitive displacement of the bound tracer. To further gauge the robustness of these interactions, the fold response over the control (i.e., BRETtracer/BRETcontrol) was calculated. We chose a 1.5-fold response, which translates to ≥7-fold signal over noise as the minimal threshold required to score an interaction as positive. […]. Below we highlight the screening results obtained for our exemplary fluorescent tracers based on Clozapine, Amitriptyline and AZD1283.
HiBiT-GPCR DNA constructs were diluted in 10 mM Tris pH 8 to a final concentration of 0.01 μg/μL, arrayed in 96-well plates and stored at −20 °C. For transfection, HEK293 cells were suspended in Opti-MEM (without phenol red) supplemented with 2% fetal bovine serum (Seradigm) and 100 units/mL penicillin–streptomycin (Gibco) at a final concentration of 220,000 cells/mL and dispensed into white 96-well plates at 90 μL/well. Subsequent transfections and screens were carried using an Agilent Bravo Automated Liquid Handling Platform. First, the 96-well HiBiT DNA arrays were diluted 25-fold in Opti-MEM (without serum or phenol red) to a final concentration of 0.0004 μg/μL and 20 μL of the diluted DNAs were transferred into new 96-well plates. Next, promoterless carrier DNA (1 μg/μL) was diluted 25-fold (0.04 μg/μL) and then dispensed into the diluted arrays at 20 μL/well. Following brief mixing, Viafect transfection reagent (Promega) diluted 16-fold into Opti-MEM was dispensed into the plates at 40 μL/well. After mixing by pipetting, plates were incubated for 10 min on the pipetting station deck. The DNA-transfection reagent complexes were then added to plates containing cells. To facilitate the screen, 10 μL of DNA-transfection reagent complexes were added in duplicates to the top 4 and bottom 4 rows, resulting in two identical 48-well arrays per plate. Plates with transfected cells were incubated for 18–20 h at 37 °C/5% CO2. A screen of each tracer across the entire library using two different concentrations requires duplicate plates of transfected cells. Depending on the number of tracers being screened, transfections can be scaled up using the same ratios. The next day, for each tracer, four 20× screening solutions in tracer dilution buffer (Promega) were prepared: two duplicates at final concentration of 20 μM and two duplicates at a final concentration of 2 μM. A competing unmodified compound was added to one of each duplicate at a final concentration of 400 μM. The four resulting solutions were diluted 4-fold in Opti-MEM without serum or phenol red to generate 5× solutions (5 µM and 0.5 µM tracer +/− 100 μM competing compound). To screen the library, a BioTek MultiFlo FX liquid dispenser was used to dispense 22.5 µL of tracer solution to the top 4 rows and 22.5 µL tracer + competing compound solution to the 4 bottom rows. Plates were briefly mixed on an orbital shaker and incubated for 1.5 h at room temperature. […]

T1 sequence (Q13255 19-1194): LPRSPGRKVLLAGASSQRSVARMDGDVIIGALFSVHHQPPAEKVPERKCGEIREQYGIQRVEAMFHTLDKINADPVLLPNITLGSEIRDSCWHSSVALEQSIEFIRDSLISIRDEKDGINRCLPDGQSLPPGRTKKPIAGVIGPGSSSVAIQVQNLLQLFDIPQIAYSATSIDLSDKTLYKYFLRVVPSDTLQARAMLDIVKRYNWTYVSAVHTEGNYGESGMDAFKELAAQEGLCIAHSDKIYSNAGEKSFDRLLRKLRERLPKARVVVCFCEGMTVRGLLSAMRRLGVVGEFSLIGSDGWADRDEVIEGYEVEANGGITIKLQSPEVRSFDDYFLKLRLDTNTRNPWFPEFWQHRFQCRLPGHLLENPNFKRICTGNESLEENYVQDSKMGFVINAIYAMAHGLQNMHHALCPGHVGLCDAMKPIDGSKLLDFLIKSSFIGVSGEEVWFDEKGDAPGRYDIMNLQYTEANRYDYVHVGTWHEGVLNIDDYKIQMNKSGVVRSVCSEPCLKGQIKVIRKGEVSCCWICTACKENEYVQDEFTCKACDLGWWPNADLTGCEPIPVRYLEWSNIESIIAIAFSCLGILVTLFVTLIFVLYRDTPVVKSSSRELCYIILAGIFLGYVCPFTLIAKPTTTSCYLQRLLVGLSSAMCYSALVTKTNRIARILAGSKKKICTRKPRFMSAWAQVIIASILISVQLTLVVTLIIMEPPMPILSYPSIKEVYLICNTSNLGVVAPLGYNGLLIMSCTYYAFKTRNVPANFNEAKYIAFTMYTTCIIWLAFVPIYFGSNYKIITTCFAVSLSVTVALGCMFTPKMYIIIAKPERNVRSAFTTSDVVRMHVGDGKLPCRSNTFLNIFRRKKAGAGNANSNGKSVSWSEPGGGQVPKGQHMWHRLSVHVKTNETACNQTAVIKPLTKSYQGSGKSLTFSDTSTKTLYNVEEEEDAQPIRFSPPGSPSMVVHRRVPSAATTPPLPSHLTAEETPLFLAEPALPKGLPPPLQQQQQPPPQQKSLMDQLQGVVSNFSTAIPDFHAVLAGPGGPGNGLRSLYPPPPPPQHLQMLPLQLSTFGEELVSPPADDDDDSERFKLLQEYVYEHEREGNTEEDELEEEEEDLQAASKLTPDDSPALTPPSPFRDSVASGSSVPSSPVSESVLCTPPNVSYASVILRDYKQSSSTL

| Compound | NanoBRET Fold Response (GRM1, tracer 0.1μM) | NanoBRET Fold Response (GRM1, tracer 1μM) | further results |
| --- | --- | --- | --- |
| CCOC(=O)c1cc(C#N)c(N2CCC(C(=O)NS(=O)(=O)Cc3ccccc3/C=C/C(=O)NCCNC(=O)CCc3ccc4n3[B-](F)(F)[N+]3=C(c5ccc[nH]5)C=CC3=C4)CC2)nc1C [AZD1283-1-NB590] | – | – | NanoBRET Fold Response (GRM1, 0.1μM): 1.28; NanoBRET Fold Response (GRM1, 1μM): 0.71 |
| N#CN=C(NCCCOc1cccc(CN2CCCCC2)c1)NCCNC(=O)CCOCCOCCOCCOCCNC(=O)CCc1ccc2n1[B-](F)(F)[N+]1=C(c3ccc[nH]3)C=CC1=C2 [Aminopotentidine-2-NB590] | 0.59 | 0.94 | – |
| CN(C)CCC=C1c2ccccc2CCc2ccc(C(=O)NCCNC(=O)CCOCCOCCOCCOCCNC(=O)CCc3ccc4n3[B-](F)(F)[N+]3=C(c5ccc[nH]5)C=CC3=C4)cc21 [Amitriptyline-b-2-NB590] | 0.77 | 0.97 | – |
| COc1ccc2c(n1)c(CCNC(C)=O)cn2CCNC(=O)CCc1ccc2n1[B-](F)(F)[N+]1=C(c3ccc[nH]3)C=CC1=C2 [Azamelatonin-1-NB590] | – | – | NanoBRET Fold Response (0.1μM tracer): 1.27; NanoBRET Fold Response (1μM tracer): 0.47 |
| COc1ccc2[nH]c(-c3ccc(CNC(=O)CCOCCOCCOCCOCCNC(=O)CCc4ccc5n4[B-](F)(F)[N+]4=C(c6ccc[nH]6)C=CC4=C5)cc3)c(CCNC(C)=O)c2n1 [AzomelatoninICO9-2-NB590] | – | – | NanoBRET Fold Response (0.1μM tracer): 0.66; NanoBRET Fold Response (1μM tracer): 1.33 |
| O=C(CCOCCOCCOCCOCCNC(=O)CCc1ccc2n1[B-](F)(F)[N+]1=C(c3ccc[nH]3)C=CC1=C2)NCCCN1CCN(C2=Nc3cc(Cl)ccc3Nc3ccccc32)CC1 [Clozapine-a-2-NB590] | – | – | NanoBRET Fold Response (GRM1, 0.1μM tracer): 1.42; NanoBRET Fold Response (GRM1, 1μM tracer): 0.90 |
| CN1CCN(C2=Nc3cc(Cl)ccc3Nc3ccc(CNC(=O)CCOCCOCCOCCOCCNC(=O)CCc4ccc5n4[B-](F)(F)[N+]4=C(c6ccc[nH]6)C=CC4=C5)cc32)CC1 [Clozapine-b-2-NB590] | – | – | NanoBRET Fold Response (GRM1, 0.1μM tracer): 1.05; NanoBRET Fold Response (GRM1, 1μM tracer): 0.74 |
| CN1CCN(C2=Nc3cc(Cl)ccc3N(CC(=O)NCCOCCOCCOCCOCCNC(=O)CCc3ccc4n3[B-](F)(F)[N+]3=C(c5ccc[nH]5)C=CC3=C4)c3ccccc32)CC1 [Clozapine-c-2-NB590] | – | – | NanoBRET Fold Response (GRM1, 0.1μM tracer): 0.99; NanoBRET Fold Response (GRM1, 1μM tracer): 1.00 |
| O=C(CCOCCOCCOCCOCCNC(=O)CCc1ccc2n1[B-](F)(F)[N+]1=C(c3ccc[nH]3)C=CC1=C2)NCCCN1CCN(C2=Nc3ccccc3Oc3ccc(Cl)cc32)CC1 [Loxapine-a-2-NB590] | 0.93 | 0.59 | – |
| COc1ccccc1N1CCN(CCCCN2C(=O)c3ccc(CNC(=O)CCOCCOCCOCCOCCNC(=O)CCc4ccc5n4[B-](F)(F)[N+]4=C(c6ccc[nH]6)C=CC4=C5)cc3C2=O)CC1 [NAN-190-2-NB590] | 0.35 | 0.92 | – |
| COc1ccccc1N1CCN(CCCCN2C(=O)c3ccc(CNC(=O)CCOCCNC(=O)c4ccc(CNC(=O)CCc5ccc6n5[B-](F)(F)[N+]5=C(c7ccc[nH]7)C=CC5=C6)cc4)cc3C2=O)CC1 [NAN-190-3-NB590] | 1.03 | 1.12 | – |
| O=C(CCc1ccc2n1[B-](F)(F)[N+]1=C(c3ccc[nH]3)C=CC1=C2)NCc1ccc(C(=O)NCCOCCC(=O)N[C@@H]2CC[C@@]3(O)[C@H]4Cc5ccc(O)c6c5[C@@]3(CCN4CC3CC3)[C@H]2O6)cc1 [Naltrexone-3-NB590] | 0.93 | 0.75 | – |
| Cc1cc2c(s1)Nc1ccccc1N=C2N1CCN(CCCNC(=O)CCOCCOCCOCCOCCNC(=O)CCc2ccc3n2[B-](F)(F)[N+]2=C(c4ccc[nH]4)C=CC2=C3)CC1 [Olanzapine-a-2-NB590] | 0.89 | 1.26 | – |
| O=C(CCc1ccc2n1[B-](F)(F)[N+]1=C(c3ccc[nH]3)C=CC1=C2)NCc1ccc(C(=O)NCCOCCOCCNCC(O)COc2cccc3ccccc23)cc1 (centres unmarked) [Propranolol-3-NB590] | – | – | NanoBRET Fold Response (GRM1, 0.1μM): 0.72; NanoBRET Fold Response (GRM1, 1μM): 0.69 |
| O=C(CCc1ccc2n1[B-](F)(F)[N+]1=C(c3ccc[nH]3)C=CC1=C2)NCCOCCOCCNC(=O)OCCOCCN1CCN(C2=Nc3ccccc3Sc3ccccc32)CC1 [Quetiapine-a-2-NB590] | 0.74 | 1.00 | – |
| Cc1nc2n(c(=O)c1CCN1CCC(c3noc4cc(F)ccc34)CC1)CCCC2OC(=O)NCCOCCOCCOCCOCCNC(=O)CCc1ccc2n1[B-](F)(F)[N+]1=C(c3ccc[nH]3)C=CC1=C2 (centres unmarked) [Risperidone-2-NB590] | 0.97 | 0.84 | – |
| CC(C)N(CC[C@H](c1ccccc1)c1cc(CCNC(=O)CCOCCOCCOCCOCCNC(=O)CCc2ccc3n2[B-](F)(F)[N+]2=C(c4ccc[nH]4)C=CC2=C3)ccc1O)C(C)C [Tolterodine-2-NB590] | 0.94 | 0.81 | – |
| CC(C)N(CC[C@H](c1ccccc1)c1cc(CCNC(=O)c2ccc(CNC(=O)CCc3ccc4n3[B-](F)(F)[N+]3=C(c5ccc[nH]5)C=CC3=C4)cc2)ccc1O)C(C)C [Tolterodine-BZ-NB590] | 0.88 | 0.19 | – |
| CCCn1c(=O)c2[nH]c(-c3ccc(OCC(=O)NCCNC(=O)CCOCCNC(=O)c4ccc(CNC(=O)CCc5ccc6n5[B-](F)(F)[N+]5=C(c7ccc[nH]7)C=CC5=C6)cc4)cc3)nc2n(CCC)c1=O [XAC-3-NB590] | 0.63 | 0.80 | – |
